Measured values taken from patent US7666639B2, “Plant deoxyribonucleoside kinase enzymes and their use” (priority 2002, dated 2010).

Key:
[1] = tested on: tomato dNK enzyme (TOM-dCK/dGK); assay: Deoxyribonucleoside kinase activity in extract of KY895 transformed with pGEX-2T-TOM-dCK/dGK; assay type: biochemical, Lycopersicum esculentum; settings: for ability to phosphorylate the deoxyribonucleoside (in words): pGEX-2T-TOM-dCK/dGK
Experimental: (§1) Transformed KY895 strains were grown to an OD600 nm of 0.5-0.6 in LB/Ampicillin (100 μg/ml) medium at 37° C., and protein expression was induced by addition of 100 μM IPTG. The cells were further grown for 4 hours at 25° C. and subsequently harvested by centrifugation.
(§2) Pellets were stored at −80° C. until activity testing. Pellets were submitted to brief sonification in extraction buffer (50 mM Tris/HCl pH 7.5, 1 mM DTT, 10% (v/v) glycerol, 1% (v/v) Triton X-100, protease inhibitor cocktail (Complete™ from Roche Diagnostics).
(§3) Deoxyribonucleoside kinase activities were determined in the KY895 extracts by initial velocity measurements based on four time samples by the DE-81 filter paper assay using tritium-labelled nucleoside substrates. 4 to 20 μg extracts were used in the assays.
(§4) The four natural deoxyribonucleosides were tested at a fixed concentration of 100 μM. The highest specific activity in each extract was set to 100%.

[2] = tested on: N-terminally deleted tomato dNK enzyme (TOM-ΔNdCK/dGK); assay: Deoxyribonucleoside kinase activity in extract of KY895 transformed with pGEX-2T-TOM-ΔNdCK/dGK; assay type: biochemical, Lycopersicum esculentum; settings: for ability to phosphorylate the deoxyribonucleoside (in words): pGEX-2T-TOM-ΔNdCK/dGK
Experimental: (§5) The E. coli strain KY895 (F^−, tdk-1, ilv) [Knecht W, Munch-Petersen B and Piskur J: Identification of residues involved in the specificity and regulation of the highly efficient multisubstrate deoxyribonucleoside kinase from Drosophila melanogaster; J. Mol. Biol. 2000 301 827-837] was transformed by various expression plasmids using standard techniques. Transformed KY895 strains were grown to an OD600 nm of 0.5-0.6 in LB/Ampicillin (100 μg/ml) medium at 37° C., and protein expression was induced by addition of 100 μM IPTG. The cells were further grown for 4 hours at 25° C. and subsequently harvested by centrifugation.
as §2
(§6) Deoxyribonucleoside kinase activities were determined in the KY895 extracts by initial velocity measurements based on four time samples by the DE-81 filter paper assay using tritium-labelled nucleoside substrates. 4 to 20 μg extracts were used in the assays. The assay was done as described by Munch-Petersen et al. [Munch-Petersen, B., Knecht, W, Lenz, C., Sondergaard, L. & Piskur, J: Functional expression of a multisubstrate deoxyribonucleoside kinase from Drosophila melanogaster and its C-terminal deletion mutants; J. Biol. Chem. 2000 275 6673-6679].
(§7) The protein concentration was determined according to Bradford with BSA as standard protein [Bradford M M: A rapid and sensitive method for the quantitation of microgram quantities of protein utilizing the principle of protein-dye binding; Anal. Biochem. 1976 72 248-254]. SDS-PAGE was done according to the procedure of Laemmli [Laemmli U K: Cleavage of structural proteins during the assembly of the head of bacteriophage T4; Nature 1970 227 680-685], and proteins were visualized by Coomassie staining to verify recombinant protein expression.
as §4

[3] = tested on: C-terminally deleted tomato dNK enzyme (TOM-dCK/dGKΔC); assay: Deoxyribonucleoside kinase activity in extract of KY895 transformed with pGEX-2T-TOM-dCK/dGKΔC; assay type: biochemical, Lycopersicum esculentum; settings: for Deoxyribonucleoside kinase activity (relative): highest specific activity in extract = 100%
Experimental: as §5, §2, §6, §7, §4

[4] = tested on: Arabidopsis thaliana dNK enzyme (AT-dCK/dGK); assay: Deoxyribonucleoside kinase activity in extract of KY895 transformed with pGEX-2T-AT-dCK/dGK; assay type: biochemical; settings: for ability to phosphorylate the deoxyribonucleoside (in words): pGEX-2T-AT-dCK/dGK
Experimental: as §1, §2, §3, §4

[5] = extract of pGEX-2T-TOM-dCK/dGKΔC transformant, substrate 100 μM

Nc1nc2c(ncn2[C@H]2C[C@H](O)[C@@H](CO)O2)c(=O)[nH]1 [dGuo, deoxyguanosine]
specific activity corresponding to 100% ([1]; extract of pGEX-2T-TOM-dCK/dGK transformant, substrate 100 μM): (3.3) mU/mg
Deoxyribonucleoside kinase activity (relative) ([1]; extract of pGEX-2T-TOM-dCK/dGK transformant, substrate 100 μM, highest specific activity in extract = 100%): 100%
ability to phosphorylate the deoxyribonucleoside (in words) [1]: able to phosphorylate
specific activity corresponding to 100% ([2]; extract of pGEX-2T-TOM-ΔNdCK/dGK transformant, substrate 100 μM): (0.32) mU/mg
Deoxyribonucleoside kinase activity (relative) ([2]; extract of pGEX-2T-TOM-ΔNdCK/dGK transformant, substrate 100 μM, highest specific activity in extract = 100%): 100%
ability to phosphorylate the deoxyribonucleoside (in words) [2]: able to phosphorylate
Deoxyribonucleoside kinase activity (relative) [3, 5]: 74%
Deoxyribonucleoside kinase activity (relative) ([4]; extract of pGEX-2T-AT-dCK/dGK transformant, substrate 100 μM, highest specific activity in extract = 100%): 91%
ability to phosphorylate the deoxyribonucleoside (in words) [4]: able to phosphorylate

Cc1cn([C@H]2C[C@H](O)[C@@H](CO)O2)c(=O)[nH]c1=O [dThd, thymidine]
ability to phosphorylate the deoxyribonucleoside (in words) [1]: not
ability to phosphorylate the deoxyribonucleoside (in words) [2]: not
specific activity corresponding to 100% [3, 5]: (0.27) mU/mg
Deoxyribonucleoside kinase activity (relative) [3, 5]: 100%
substrate conversion (in words) ([3]; pGEX-2T-TOM-dCK/dGKΔC): fastest converted substrate
ability to phosphorylate the deoxyribonucleoside (in words) [4]: not
